How the values were obtained:
Type in all cases: cell-based
[1] = system: thoracic aortic ring specimens of rat; test: Rat aortic ring culture: angiogenesis promoting action (newly grown micro-vessels); settings: for Number of micro-vessels: 7 days culture, mean ± SE, control 20 ± 2
Experimental: The test was conducted according to a report by Nicosia R. F. et al. (In Vitro Cell Dev Biol 26, 119-128, 1990). Briefly, thoracic aorta was removed from rat under ether anesthesia, and aortic rings were obtained by cross-sectioning at 1 mm intervals. The aortic rings were embedded into type I collagen gel (Koken Co.). Further, MCDB131 medium (Gibco BRL Co.) containing the Test Compound A was added to the upper layer, and the medium was exchanged every three days. After 7 days from the culture, micro-vessels newly grown from a cutting section of the aortic ring specimens were stained with alkaline phosphatase, then numbers of micro-vessels observed based on digital camera image were counted by using Scion Image (Scion Corp.). The statistical analysis was performed as follows: Data were analyzed using Dunnett's test with randamized block design. The difference between test compound groups and non-treated group were considered statistical significant at P<0.05.

[2] = system: human aortic endothelial cells; test: Vascular endothelial cell migration (48 well micro chemotaxis chamber); settings: for Number of Migration cell: 4 hours, mean ± SE, control 34 ± 8
Experimental: The test was conducted according to a report by Witzenbichler, B. et al. (J. Biol. Chem., 273, 18514-18521, 1998). Briefly, human aortic endothelial cells (Cambrex Corp.) were cultured in MCDB131 medium to confluent state. Cell migration was tested by using a 48 well micro chemotaxis chamber (Neuro Probe Inc.). The Test Compound A was added into the lower layer of a well, while cells, 1×10^4 cells per well, were added into the upper layer, and those were cultured for 4 hours. Cells were immobilized with methanol and cells in the upper layer of a filter were removed, and cells migrated on the filter were stained with Diff Quick (International Reagents Corp.), then numbers of migrated endothelial cells observed from digital camera image were counted by using Scion Image (Scion Corp.). The statistical analysis was performed as follows: Data were analyzed using Williams' test after linear regression analysis. The difference between test compound groups and non-treated group were considered statistical significant at P<0.05.

[3] = system: human aortic endothelial cells; test: Luminalization (tube formation) of vascular endothelial cells in gel; settings: for Length of formed tube (Pixel): third day, mean ± SE, control 13.3 ± 0.4
Experimental: The test was conducted according to a report by Yasunaga, C. et al. (Lab Invest, 1989; 61: 698-704). Briefly, human aortic endothelial cells (Cambrex Corp.) were cultured in MCDB131 medium to confluent state. Cells prepared with medium containing the Test Compound A, 5×10^4 cells/well, were added on cell matrix gel (Nitta Gelatin Co.) and cultured for 4 hours to adhere cells. After medium removal, gel was added to embed cells, and medium containing the drug was added on the upper layer, then length of the formed tube was measured on the third day based on digital camera image by using Scion Image (Scion Corp.). The statistical analysis was performed as follows: Data were analyzed using Williams' test after linear regression analysis. The difference between test compound groups and non-treated group were considered statistical significant at P<0.05.

[4] = dose dependent manner, compared with non-treated control group

CCC(=O)Nc1c(C)cc(C(=O)N2CCC(N(C)CCc3ccccc3)CC2)cc1C [Test Compound A, 4-[N-methyl-N-(2-phenylethyl)amino]-1-(3,5-dimethyl-4-propionylaminobenzoyl)piperidine]
Number of micro-vessels ([1]; Concentration 6 (−Log M)): 35 ± 4
Number of micro-vessels ([1]; Concentration 7 (−Log M)): 33 ± 3
Number of micro-vessels ([1]; Concentration 8 (−Log M)): 32 ± 4
Number of micro-vessels ([1]; Concentration 9 (−Log M)): 27 ± 2
Number of micro-vessels ([1]; Concentration 10 (−Log M)): 30 ± 3
Number of micro-vessels ([1]; Concentration 11 (−Log M)): 22 ± 3
Number of micro-vessels ([1]; Concentration 12 (−Log M)): 24 ± 3
Effect on numbers of newly grown micro-vessels (in words) [1, 4]: significantly increased numbers of newly grown micro-vessels
Number of Migration cell ([2]; Concentration 8 (−Log M)): 64 ± 7
Number of Migration cell ([2]; Concentration 9 (−Log M)): 64 ± 8
Number of Migration cell ([2]; Concentration 10 (−Log M)): 49 ± 6
Number of Migration cell ([2]; Concentration 11 (−Log M)): 42 ± 6
Number of Migration cell ([2]; Concentration 12 (−Log M)): 41 ± 8
Effect on numbers of migration cells (in words) [2, 4]: significantly increased numbers of migration cells
Length of formed tube (Pixel) ([3]; Concentration 6 (−Log M)): 48.4 ± 5.3 Pixel
Length of formed tube (Pixel) ([3]; Concentration 7 (−Log M)): 32.2 ± 3.8 Pixel
Length of formed tube (Pixel) ([3]; Concentration 8 (−Log M)): 15.7 ± 0.9 Pixel
Effect on length of formed tube (in words) [3, 4]: significantly increased length of formed tube
